Laboratory results reported in US20250308625A1, “METHOD FOR ESTIMATING A DYNAMIC MOLECULAR PROGRAM OF A CELL” (Yale University, priority 2022, published 2025).

Target: T1, ESRRA (Homo sapiens, UniProt P11474)
T1 construct: endogenous in cells; host or cells: HCC38 CD44hi cells (2D culture)
T1 sequence (P11474 1-423): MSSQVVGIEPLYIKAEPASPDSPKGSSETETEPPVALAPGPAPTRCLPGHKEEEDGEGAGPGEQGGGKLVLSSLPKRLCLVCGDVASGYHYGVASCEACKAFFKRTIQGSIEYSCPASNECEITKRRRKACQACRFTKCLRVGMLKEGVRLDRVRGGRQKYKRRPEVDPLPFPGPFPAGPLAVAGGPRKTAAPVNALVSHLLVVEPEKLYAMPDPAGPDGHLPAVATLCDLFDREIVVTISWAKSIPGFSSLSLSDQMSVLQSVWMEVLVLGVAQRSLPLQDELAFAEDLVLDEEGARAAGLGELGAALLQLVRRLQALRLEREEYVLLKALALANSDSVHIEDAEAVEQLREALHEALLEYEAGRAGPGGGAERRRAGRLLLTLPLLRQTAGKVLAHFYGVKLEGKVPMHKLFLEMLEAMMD
Assay: Western blot of CDH1 expression after ESRRA knockdown (siRNA) or ESRRA inhibition (C14) in 2D cultured HCC38 CD44hi cells
Format: cell-based
Details: 2D culture, C14 at 5 and 10 μM vs DMSO, 48 hours post-treatment, normalized to β-Actin, n=3, p≤0.05
Protocol: Preliminary validation of the MET network included an in-vitro knockdown of ESRRA in HCC38 CD44^hi cells (n=3 biological replicates). Predesigned siRNA specific to ESRRA and scrambled siRNA were purchased from Integrated DNA Technologies, USA (TriFECTa® RNAi Kit, Design ID hs.Ri.ESRRA.13). HCC38 CD44^hi cells were seeded in 24 well plates at a density of 9000 cells/well and ESRRA knockdown was performed using 10 nM of pooled siRNA (hs.Ri.ESRRA.13.1, hs.Ri.ESRRA.13.2 and hs.Ri.ESRRA.13.3) using Lipofectamine RNAiMax (ThermoFisher Scientific, USA) as per the manufacturer's protocol. Cells were harvested for protein extraction 48 hrs post siRNA transfection to study the downstream effect on CDH1 expression upon ESRRA knockdown using western blot. […]
Proteins were extracted from control and treated cells using ice cold modified RIPA buffer (50 mM Tris-HCl pH 7.5, 150 mM NaCl, 1 mM EDTA, 1 mM EGTA, 1% Triton X-100, 0.1% SDS with supplemented with 1× protease and phosphatase inhibitor cocktails). […] Proteins were quantified using the Pierce™ BCA Protein Assay Kit (Cat. 23227, Thermo Fisher Scientific, USA) as per the manufacturer's instructions. […] The signal intensity of the bands in western blots was quantified using Image Studio Lite version 5.2 (LI-COR Biotechnology, USA).

CDH1 expression (western blot, relative fold-change): significant increase
Compound: CC(C)c1cccc(-n2cc(C(=O)c3ccccc3N)nn2)c1 [ESRRA antagonist, (2-Aminophenyl) (1-(3-isopropylphenyl)-1H-1,2,3-triazol-4-yl) methanone]
